# pIC50: −log10 of the molar value. Where “and” joins values, the source holds several entries; their conditions need not be identical. Equal values may be shown once.
# Test system: IGROV1 complex spheroids (HUVEC, MSC), viability % test/control
# Assay: Anticancer human tumor IGROV1 cell line growth inhibition [GQUAD];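 further: spheroids exposed to compounds for 7 days before readout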
# Conditions: for viability, T/C: stronger effect = lower value; for pIC50: curve of compound
# From the text: DNA G-quadruplex Stabilizer Agents in Combinations in Complex Spheroids
# A high-throughput screen of multi-cell type tumor spheroids was designed to identify active combinations of DNA G-quadruplex stabilizer agents and targeted small molecules. Complex spheroids include a stromal component modeled by human endothelial cells (HUVEC) and fibroblasts modeled by human mesenchymal stem cells (MSCs). The concentration ranges selected for each drug and investigational agent were based upon clinically achievable concentrations if the clinical Cmax of the agent was known.
# Compounds. The drugs and investigational agents: pidnarulex (CX-5461; NSC782164), APTO-253 (NSC789042), BRACO-19 (NSC847499), peposertib (NSC802822), ceralasertib (NSC780249), elimusertib (NSC800525), camonsertib (NSC841442), AZD-1390 (NSC803789), olaparib (NSC753686), talazoparib (NSC767125), ART-558 (NSC835418), sotorasib (NSC818433), MRTX-1133 (NSC836407), SN-38 (NSC673596), topotecan (NSC609699), etoposide (NSC141540), doxorubicin (NSC123127), gemcitabine (NSC613327), 5-fluorouracil (NSC19893), paclitaxel (NSC125973), vemurafenib (NSC761431), panobinostat (NSC761190), R-306465 (JNJ-16241199; NSC773264), adavosertib (NSC754352), TP-3654 (NSC805149), carboplatin (NSC241240), KSQ-4279 (NSC840948), and staurosporine (NSC755774) were obtained from the National Cancer Institute (NCI) Developmental Therapeutics Program Chemical Repository (34). The FDA-approved anticancer drug set is available from the NCI Developmental Therapeutics Program. […] The stock solutions were prepared in dimethyl sulfoxide (DMSO, Sigma-Aldrich, St. Louis, MO, cat. D2650) at 800-fold the tested concentration and stored at -70 degrees C prior to their use. All drugs and investigational agents were tested over a range starting from a high concentration at or near the clinical Cmax and decreasing in half-log increments. If the clinical Cmax for an agent had not been determined, the highest concentration tested was 10 microM.
# 2.3 Cell Culture. All cells were maintained in an incubator at 37 degrees C and 5% CO2 with 95% humidity. The PDC lines were cultured according to standard operating procedures established by the NCI PDMR. All PDCs were thawed and cultured in Matrigel-coated flasks prepared with a working solution of 1X Ham's F-12 nutrient mix, without supplementation (Invitrogen, cat. 11765054), 100 U/mL penicillin-streptomycin (Invitrogen, cat. 15140122), and 2.5% Matrigel (Corning Inc., cat. 354248) for the first three passages. The 857933-349-R-J2-PDC line was cultured in 6C/Colon 1B media, which includes advanced DMEM/F-12 (Thermo Fisher Scientific, cat. 12634028), 10 mM HEPES (Thermo Fisher Scientific, cat. 15630080), 1X GlutaMAX supplement (Thermo Fisher Scientific, cat. 35050061), 0.1 mg/mL primocin (InvivoGen, cat. ant-pm-2), 10% defined fetal bovine serum, heat inactivated (HyClone Laboratories Inc., cat. SH30070.03HI), 50% L-WRN conditioned media (ATCC, cat. CRL-3276), 1.25 mM N-Acetyl-L-cysteine (Sigma-Aldrich, cat. A9165), 10 mM nicotinamide (Sigma-Aldrich, cat. N0636), 1X B-27 supplement (Thermo Fisher Scientific, cat. 17504044), 1X N-2 supplement (Thermo Fisher Scientific, cat. 17502048), 10 microM Y-27632 dihydrochloride (Tocris Bioscience, cat. 1254), and 50 ng/mL human EGF recombinant protein (Thermo Fisher Scientific, cat. PHG0311). The 485176-168-R4-J1-PDC line was cultured in Panc media, which includes all 6C/Colon 1B media components plus 100 ng/mL human FGF-10 (Thermo Fisher Scientific, cat. 100-26), 500 nM SB-431542 (Selleckchem, cat. S1067), and gastrin (Tocris, cat. 3006).
# […]
SMILES,"viability, T/C (compound 0.0316 µM)","viability, T/C (compound 0.1 µM)","viability, T/C (compound 0.316 µM)","viability, T/C (compound 1 µM)","viability, T/C (compound 3.16 µM)","viability, T/C (compound 10 µM)",pIC50,"viability, T/C (compound 0.000999 µM)","viability, T/C (compound 0.00316 µM)","viability, T/C (compound 0.00999 µM)","viability, T/C (compound 0.0999 µM)"
C#Cc1c(F)ccc2cc(O)cc(-c3ncc4c(N5CC6CCC(C5)N6)nc(OCC56CCCN5CC(F)C6)nc4c3F)c12 (stereo not given),88.9% and 93.9% and 107%,86.7% and 79.6% and 89.4%,81.5% and 89.6% and 96.4%,87.2% and 88.1% and 95.8%,82% and 85% and 88.4%,51.3% and 49% and 64.6%,< 5.00 and 5.01,–,–,–,–
C=CC(=O)N1CCN(c2nc(=O)n(-c3c(C)ccnc3C(C)C)c3nc(-c4c(O)cccc4F)c(F)cc23)C(C)C1 (stereo not given),102% and 105% and 117%,95.2% and 95.3% and 106%,113% and 105% and 110%,93% and 104% and 122%,79.5% and 98.5% and 104%,82.3% and 101% and 92%,< 5.00,–,–,–,–
C=CCn1c(=O)c2cnc(Nc3ccc(N4CCN(C)CC4)cc3)nc2n1-c1cccc(C(C)(C)O)n1,104% and 89% and 99.3%,65.7% and 69.2% and 68.7%,13.4% and 17.4% and 11.9%,3.03% and 3.13% and 2.69%,2.56% and 2.47% and 2.43%,1.88% and 1.86% and 2.35%,6.85 and 6.82 and 6.84,–,–,–,–
CC(=O)O[C@H]1C(=O)[C@@]2(C)[C@H]([C@H](OC(=O)c3ccccc3)[C@]3(O)C[C@H](OC(=O)[C@H](O)[C@@H](NC(=O)c4ccccc4)c4ccccc4)C(C)=C1C3(C)C)[C@]1(OC(C)=O)CO[C@@H]1C[C@@H]2O,5.95% and 6.39% and 7.02%,6.41% and 7.03% and 6.33%,5.74% and 6.73% and 6.26%,5.25% and 5.94% and 5.15%,5.64% and 4.86% and 4.9%,4.25% and 4.95% and 4.52%,> 7.50,–,–,–,–
CC(C)(O)C1CCC(Nc2ccc3ncc(-c4cccc(C(F)(F)F)c4)n3n2)CC1 (stereo not given),109% and 102% and 93.8%,101% and 72.6% and 98.9%,104% and 94.5% and 96.9%,78.5% and 77.2% and 75.5%,27% and 35.3% and 27.6%,31.4% and 36.7% and 24.7%,5.71 and 5.67 and 5.74,–,–,–,–
CC(C)n1c(=O)n(C)c2cnc3cc(F)c(-c4ccc(OCCCN5CCCCC5)nc4)cc3c21,91.1% and 96.5% and 97%,87.8% and 82.1% and 91.4%,91.3% and 101% and 92.9%,68.5% and 77.6% and 81.7%,49.1% and 59.8% and 61.3%,16.9% and 16.3% and 16.1%,5.55 and 5.40 and 5.38,–,–,–,–
CC1COCCN1c1cc(-c2ccnn2C)c2ccnc(-c3ccn[nH]3)c2n1 (stereo not given),81.8% and 73% and 68.8%,26.6% and 25.6% and 26.2%,11.2% and 10.4% and 10.8%,7.62% and 7.53% and 5.64%,4.7% and 5.08% and 4.64%,3.56% and 3.83% and 3.46%,7.21 and 7.26 and 7.28,–,–,–,–
CC1COCCN1c1cc(C2(O)CC3CCC(C2)O3)c2cnn(-c3ccn[nH]3)c2n1 (stereo not given),51.5% and 57.1% and 50.6%,16.8% and 21.7% and 20.7%,7.14% and 8.09% and 7.26%,4.84% and 5.33% and 5.42%,2.68% and 4.74% and 3.78%,1.72% and 2.09% and 2.04%,7.49 and 7.40,–,–,–,–
CC1COCCN1c1cc(C2(S(C)(=N)=O)CC2)nc(-c2ccnc3[nH]ccc23)n1 (stereo not given),105% and 96.1% and 78.7%,73.3% and 84.4% and 94.9%,95.4% and 94.3% and 89.6%,59.5% and 44.8% and 50.7%,12.6% and 14.1% and 58.1%,7% and 6.85% and 8.5%,5.90 and 6.06 and 5.53,–,–,–,–
CCCS(=O)(=O)Nc1ccc(F)c(C(=O)c2c[nH]c3ncc(-c4ccc(Cl)cc4)cc23)c1F,105% (2×) and 108%,96.1% and 96.3% and 95.1%,106% and 108% and 97.5%,103% and 80.5% and 96.6%,66.4% and 67.2% and 56.1%,21.1% and 13.8% and 16.5%,5.32 and 5.36 and 5.42,–,–,–,–
CC[C@@]1(O)C(=O)OCc2c1cc1n(c2=O)Cc2cc3c(CN(C)C)c(O)ccc3nc2-1,42.3% and 42.6% and 30.4%,–,11.4% and 10.2% and 9.99%,–,–,–,7.61 and 7.58 and 7.70,107% and 86.8% and 96.1%,92.1% and 95.8% and 83%,83.8% and 92.3% and 80.7%,10.7% and 11.3% and 11%
CCc1c2c(nc3ccc(O)cc13)-c1cc3c(c(=O)n1C2)COC(=O)[C@]3(O)CC,8.77% and 9.76% and 9.57%,–,1.32% and 1.27% and 1.78%,–,–,–,9.00 and > 9.00,50.7% and 46.3% and 39%,13.2% and 15%,10.7% and 11.2% and 9.68%,4.33% and 4.71% and 5.08%
CN(C)c1ccc(Nc2c3ccc(NC(=O)CCN4CCCC4)cc3nc3cc(NC(=O)CCN4CCCC4)ccc23)cc1,103% [middle of 12 runs],101% [middle of 12 runs],103% [middle of 12 runs],100% [middle of 12 runs],87.4% [middle of 12 runs],52.3% [middle of 12 runs],–,–,–,–,–
